pIC50: −log10 of the molar value.
Test system: 885724-159-R-J1-PDC KRAS PDC multicell spheroid viability
Assay: Anticancer human tumor 885724-159-R-J1-PDC patient-derived pancreatic adenocarcinoma cell line growth inhibition [KRAS2]
Settings: for pIC50: curve of first compound; for viability, T/C: stronger effect = lower value
In short: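 Combination screen of spheroid viability in tumor-cell co-cultures with endothelial (HUVEC) and mesenchymal stem cell stroma. Each agent was tested in half-log dilutions, topping at clinical Cmax or at 10 microM without a known Cmax.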

[1] = second compound 0.1 µM, first compound 0.0316 µM
[2] = second compound 0.1 µM, first compound 0.1 µM
[3] = second compound 0.1 µM, first compound 0.316 µM
[4] = second compound 0.1 µM, first compound 1 µM
[5] = second compound 0.1 µM, first compound 3.16 µM
[6] = second compound 0.1 µM, first compound 10 µM
[7] = second compound 0.316 µM, first compound 0.0316 µM
[8] = second compound 0.316 µM, first compound 0.1 µM
[9] = second compound 0.316 µM, first compound 0.316 µM
[10] = second compound 0.316 µM, first compound 1 µM
[11] = second compound 0.316 µM, first compound 3.16 µM
[12] = second compound 0.316 µM, first compound 10 µM
[13] = second compound 1 µM, first compound 0.0316 µM
[14] = second compound 1 µM, first compound 0.1 µM
[15] = second compound 1 µM, first compound 0.316 µM
[16] = second compound 1 µM, first compound 1 µM
[17] = second compound 1 µM, first compound 3.16 µM
[18] = second compound 1 µM, first compound 10 µM
[19] = second compound 3.16 µM, first compound 0.0316 µM
[20] = second compound 3.16 µM, first compound 0.1 µM
[21] = second compound 3.16 µM, first compound 0.316 µM
[22] = second compound 3.16 µM, first compound 1 µM
[23] = second compound 3.16 µM, first compound 3.16 µM
[24] = second compound 3.16 µM, first compound 10 µM
[25] = second compound 10 µM, first compound 0.0316 µM
[26] = second compound 10 µM, first compound 0.1 µM
[27] = second compound 10 µM, first compound 0.316 µM
[28] = second compound 10 µM, first compound 1 µM
[29] = second compound 10 µM, first compound 3.16 µM
[30] = second compound 10 µM, first compound 10 µM
[31] = second compound 0.1 µM, first compound 0.01 µM
[32] = second compound 0.316 µM, first compound 0.01 µM
[33] = second compound 1 µM, first compound 0.01 µM
[34] = second compound 3.16 µM, first compound 0.01 µM
[35] = second compound 10 µM, first compound 0.01 µM
[36] = second compound 0.1 µM, first compound 0.00316 µM
[37] = second compound 0.316 µM, first compound 0.00316 µM
[38] = second compound 1 µM, first compound 0.00316 µM
[39] = second compound 3.16 µM, first compound 0.00316 µM
[40] = second compound 10 µM, first compound 0.00316 µM
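Further: spheroids exposed to agents for 7 days before readout.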

| SMILES | pIC50 (second compound 0.1 µM) | pIC50 (second compound 0.316 µM) | pIC50 (second compound 1 µM) | pIC50 (second compound 3.16 µM) | pIC50 (second compound 10 µM) | viability, T/C [1] [%] | viability, T/C [2] [%] | viability, T/C [3] [%] | viability, T/C [4] [%] | viability, T/C [7] [%] | viability, T/C [8] [%] | viability, T/C [9] [%] | viability, T/C [10] [%] | viability, T/C [13] [%] | viability, T/C [14] [%] | viability, T/C [15] [%] | viability, T/C [19] [%] | viability, T/C [20] [%] | viability, T/C [25] [%] | viability, T/C [26] [%] | further results |
| --- | --- | --- | --- | --- | --- | --- | --- | --- | --- | --- | --- | --- | --- | --- | --- | --- | --- | --- | --- | --- | --- |
| CC(C)NCC(C(=O)N1CCN(c2ncnc3c2C(C)CC3O)CC1)c1ccc(Cl)cc1 (stereo not given) + CC1OCC2(CCN(c3cnc(Sc4ccnc(N)c4Cl)c(N)n3)CC2)C1N | 5.08 | 5.24 | 5.66 | 6.28 | 7.00 | 77.6 | 72.6 | 64.5 | 65.5 | 72.5 | 60.3 | 58.9 | 61.5 | 67.8 | 62.1 | 55 | 57.1 | 55.6 | 56.4 | 49.6 | viability, T/C [5]: 63.8%; viability, T/C [6]: 45.9%; viability, T/C [11]: 59.7%; viability, T/C [12]: 42.7%; viability, T/C [16]: 51.4%; viability, T/C [17]: 54.4%; viability, T/C [18]: 41.7%; viability, T/C [21]: 46.2%; viability, T/C [22]: 47.5%; viability, T/C [23]: 46.5%; viability, T/C [24]: 32.2%; viability, T/C [27]: 42.4%; viability, T/C [28]: 37%; viability, T/C [29]: 36.2%; viability, T/C [30]: 21.8% |
| CC1(C)CCC(CN2CCN(c3ccc(C(=O)NS(=O)(=O)c4ccc(NCC5CCOCC5)c([N+](=O)[O-])c4)c(Oc4cnc5[nH]ccc5c4)c3)CC2)=C(c2ccc(Cl)cc2)C1 + CC1OCC2(CCN(c3cnc(Sc4ccnc(N)c4Cl)c(N)n3)CC2)C1N | 5.37 | 5.46 | 5.55 | 5.79 | 5.92 | 88 | 88.3 | 89 | 74.8 | 82.3 | 83.8 | 75.4 | 74.2 | 77.8 | 75.2 | 68.5 | 64.1 | 63.7 | 58 | 58.3 | viability, T/C [5]: 58.2%; viability, T/C [6]: 29.7%; viability, T/C [11]: 51.7%; viability, T/C [12]: 22.1%; viability, T/C [16]: 62.2%; viability, T/C [17]: 51.1%; viability, T/C [18]: 17.6%; viability, T/C [21]: 63.2%; viability, T/C [22]: 57.4%; viability, T/C [23]: 39.7%; viability, T/C [24]: 12%; viability, T/C [27]: 60.5%; viability, T/C [28]: 53.5%; viability, T/C [29]: 30.4%; viability, T/C [30]: 3.18% |
| CC1COCCN1c1cc(-c2ccnn2C)c2ccnc(-c3ccn[nH]3)c2n1 (stereo not given) + CC1OCC2(CCN(c3cnc(Sc4ccnc(N)c4Cl)c(N)n3)CC2)C1N | < 5.50 | < 5.50 | 6.07 | 6.24 | 6.63 | 87.2 | 67.6 | 60.1 | 53 | 75.5 | 61.4 | 60.2 | 54.7 | 69.1 | 63 | 58.4 | 67.2 | 56.9 | 59.7 | 53.8 | viability, T/C [31]: 91.3%; viability, T/C [5]: 52.1%; viability, T/C [32]: 81%; viability, T/C [11]: 49.8%; viability, T/C [33]: 80.7%; viability, T/C [16]: 47.9%; viability, T/C [17]: 42.7%; viability, T/C [34]: 73.5%; viability, T/C [21]: 56%; viability, T/C [22]: 45.9%; viability, T/C [23]: 42.2%; viability, T/C [35]: 65.3%; viability, T/C [27]: 49.2%; viability, T/C [28]: 43.2%; viability, T/C [29]: 41% |
| CCN1CCN(Cc2ccc(Nc3ncc(F)c(-c4cc(F)c5nc(C)n(C(C)C)c5c4)n3)nc2)CC1 + CC1OCC2(CCN(c3cnc(Sc4ccnc(N)c4Cl)c(N)n3)CC2)C1N | < 6.00 | < 6.00 | < 6.00 | < 6.00 | < 6.00 | 78 | 74.3 | 79.8 | 76.9 | 71.6 | 71.2 | 81.2 | 81 | 71.4 | 63.5 | 75.5 | 68.7 | 61.5 | 63.2 | 59.6 | viability, T/C [36]: 88.2%; viability, T/C [31]: 94.5%; viability, T/C [37]: 80%; viability, T/C [32]: 76.3%; viability, T/C [38]: 82.7%; viability, T/C [33]: 77.5%; viability, T/C [16]: 73.7%; viability, T/C [39]: 73.8%; viability, T/C [34]: 73%; viability, T/C [21]: 68.1%; viability, T/C [22]: 71%; viability, T/C [40]: 70.9%; viability, T/C [35]: 68.1%; viability, T/C [27]: 66%; viability, T/C [28]: 63.2% |
| CCNC(=O)CC1N=C(c2ccc(Cl)cc2)c2cc(OC)ccc2-n2c(C)nnc21 (stereo not given) + CC1OCC2(CCN(c3cnc(Sc4ccnc(N)c4Cl)c(N)n3)CC2)C1N | 6.00 | 6.17 | 6.22 | 6.36 | 6.59 | 92.8 | 95 | 67.2 | 54.5 | 86.1 | 80 | 59.2 | 45.2 | 80.5 | 80 | 56.6 | 74 | 72.5 | 66.9 | 61.9 | viability, T/C [5]: 43.9%; viability, T/C [6]: 49.5%; viability, T/C [11]: 44%; viability, T/C [12]: 40.2%; viability, T/C [16]: 45%; viability, T/C [17]: 38.5%; viability, T/C [18]: 33.9%; viability, T/C [21]: 54.1%; viability, T/C [22]: 37.9%; viability, T/C [23]: 33.5%; viability, T/C [24]: 30.1%; viability, T/C [27]: 47.5%; viability, T/C [28]: 31.6%; viability, T/C [29]: 26.4%; viability, T/C [30]: 26.2% |
| Cn1ncnc1[C@H]1c2n[nH]c(=O)c3cc(F)cc(c23)N[C@@H]1c1ccc(F)cc1 + CC1OCC2(CCN(c3cnc(Sc4ccnc(N)c4Cl)c(N)n3)CC2)C1N | < 7.00 | < 7.00 | < 7.00 | < 7.00 | < 7.00 | 78.5 | 78.7 |  |  | 71.8 | 69.7 |  |  | 69.2 | 73.6 |  | 62.5 | 58.8 | 61.7 | 61.4 | viability, T/C (second compound 0.1 µM, first compound 0.000316 µM): 84.8%; viability, T/C (second compound 0.1 µM, first compound 0.001 µM): 86.1%; viability, T/C [36]: 85.2%; viability, T/C [31]: 87.9%; viability, T/C (second compound 0.316 µM, first compound 0.000316 µM): 76.4%; viability, T/C (second compound 0.316 µM, first compound 0.001 µM): 78%; viability, T/C [37]: 78.2%; viability, T/C [32]: 79.1%; viability, T/C (second compound 1 µM, first compound 0.000316 µM): 78.6%; viability, T/C (second compound 1 µM, first compound 0.001 µM): 74.5%; viability, T/C [38]: 71.4%; viability, T/C [33]: 68.5%; viability, T/C (second compound 3.16 µM, first compound 0.000316 µM): 70.1%; viability, T/C (second compound 3.16 µM, first compound 0.001 µM): 72.6%; viability, T/C [39]: 69.8%; viability, T/C [34]: 67%; viability, T/C (second compound 10 µM, first compound 0.000316 µM): 62.7%; viability, T/C (second compound 10 µM, first compound 0.001 µM): 65.5%; viability, T/C [40]: 64.8%; viability, T/C [35]: 59.9% |
